The record followed here is paper PMC7109729 (Haematologica, 2020).

By Kd is commonly meant the equilibrium constant for the complex coming apart. Higher therefore signals a looser complex.

The target of the assay is T1, peroxisome proliferator-activated receptor-γ (PPARγ) (Homo sapiens, UniProt P37231).
T1 sequence (P37231 223-505 limits assumed): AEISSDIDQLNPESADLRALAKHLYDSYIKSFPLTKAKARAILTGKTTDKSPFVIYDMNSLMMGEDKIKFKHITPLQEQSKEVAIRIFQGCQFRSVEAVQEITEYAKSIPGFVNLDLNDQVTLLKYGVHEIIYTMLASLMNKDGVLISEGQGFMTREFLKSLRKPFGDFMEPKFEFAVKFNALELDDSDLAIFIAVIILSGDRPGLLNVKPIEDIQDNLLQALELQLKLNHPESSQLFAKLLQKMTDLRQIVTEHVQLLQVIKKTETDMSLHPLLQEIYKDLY
Briefly: SPR. It counts as binding.

Regarding `CC(C)/N=c1\cc2n(-c3ccc(Cl)cc3)c3ccccc3nc-2cc1Nc1ccc(Cl)cc1` [CFZ, clofazimine], binding was put at a Kd of 79 nM. That is a double-digit nanomolar value.
